# Data published in ChEMBL document CHEMBL4649991.
# Where “and” joins values, the source holds several entries; their conditions need not be identical. Equal values may be shown once.
# What was measured:
# [1] = molecular target: Bromodomain-containing protein 3 (Homo sapiens) (UniProt Q15059); settings: Compound concentration 10.0 uM, Protein concentration 2.0 uM
# [2] = molecular target: Bromodomain-containing protein 7 (Homo sapiens) (UniProt Q9NPI1); settings: Compound concentration 10.0 uM, Protein concentration 2.0 uM
# [3] = molecular target: Histone acetyltransferase KAT2B (Homo sapiens) (UniProt Q92831); settings: Compound concentration 10.0 uM, Protein concentration 2.0 uM
# [4] = molecular target: Histone-lysine N-methyltransferase ASH1L (Homo sapiens) (UniProt Q9NR48); settings: Compound concentration 10.0 uM, Protein concentration 2.0 uM
# [5] = molecular target: Histone-lysine N-methyltransferase 2A (Homo sapiens) (UniProt Q03164); settings: Compound concentration 10.0 uM, Protein concentration 2.0 uM
# [6] = molecular target: Chromatin remodeling regulator CECR2 (Homo sapiens) (UniProt Q9BXF3); settings: Compound concentration 10.0 uM, Protein concentration 2.0 uM
# Chain of Chromatin remodeling regulator CECR2 (Homo sapiens) (Q9BXF3 whole entry, looked up): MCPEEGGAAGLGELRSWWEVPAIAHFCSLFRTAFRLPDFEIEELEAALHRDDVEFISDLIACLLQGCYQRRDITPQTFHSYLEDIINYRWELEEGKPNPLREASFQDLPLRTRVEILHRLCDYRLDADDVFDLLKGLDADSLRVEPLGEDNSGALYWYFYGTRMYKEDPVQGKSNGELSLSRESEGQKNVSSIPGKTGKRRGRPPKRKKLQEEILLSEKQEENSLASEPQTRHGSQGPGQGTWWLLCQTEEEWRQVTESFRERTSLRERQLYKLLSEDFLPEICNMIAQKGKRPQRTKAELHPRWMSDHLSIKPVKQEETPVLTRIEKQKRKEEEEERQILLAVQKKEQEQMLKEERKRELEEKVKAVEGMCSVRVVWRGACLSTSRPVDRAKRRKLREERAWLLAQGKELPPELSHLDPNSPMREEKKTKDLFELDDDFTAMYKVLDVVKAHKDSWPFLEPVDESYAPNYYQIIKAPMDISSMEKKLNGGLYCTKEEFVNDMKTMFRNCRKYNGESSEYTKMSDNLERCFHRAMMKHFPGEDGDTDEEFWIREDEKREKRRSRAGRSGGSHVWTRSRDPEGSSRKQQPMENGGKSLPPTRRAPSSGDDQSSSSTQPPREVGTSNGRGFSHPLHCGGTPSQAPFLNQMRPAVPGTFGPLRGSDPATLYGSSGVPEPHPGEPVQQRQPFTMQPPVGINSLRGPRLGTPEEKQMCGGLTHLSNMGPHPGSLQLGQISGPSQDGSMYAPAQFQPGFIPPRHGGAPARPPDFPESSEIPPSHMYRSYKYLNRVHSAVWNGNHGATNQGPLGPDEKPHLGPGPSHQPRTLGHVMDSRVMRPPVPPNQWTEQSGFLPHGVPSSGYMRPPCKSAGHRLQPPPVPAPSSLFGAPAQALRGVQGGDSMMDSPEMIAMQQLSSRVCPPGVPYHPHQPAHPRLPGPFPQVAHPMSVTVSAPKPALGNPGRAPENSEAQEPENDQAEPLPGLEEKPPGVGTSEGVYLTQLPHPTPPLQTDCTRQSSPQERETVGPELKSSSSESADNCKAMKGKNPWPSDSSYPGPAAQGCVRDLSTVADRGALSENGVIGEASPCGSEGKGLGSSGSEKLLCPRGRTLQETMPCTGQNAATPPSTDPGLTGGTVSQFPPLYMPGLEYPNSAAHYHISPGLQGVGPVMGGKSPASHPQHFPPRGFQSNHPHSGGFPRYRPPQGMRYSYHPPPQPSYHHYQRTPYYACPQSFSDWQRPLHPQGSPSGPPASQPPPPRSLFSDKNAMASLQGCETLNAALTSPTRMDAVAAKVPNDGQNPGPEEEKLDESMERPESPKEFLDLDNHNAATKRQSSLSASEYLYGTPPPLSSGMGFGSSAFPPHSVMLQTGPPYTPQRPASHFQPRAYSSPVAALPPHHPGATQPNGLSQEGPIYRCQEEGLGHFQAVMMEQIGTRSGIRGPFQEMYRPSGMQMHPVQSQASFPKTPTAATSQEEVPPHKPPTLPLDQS
# [7] = molecular target: Chromatin remodeling regulator CECR2 (Homo sapiens) (UniProt Q9BXF3); settings: Compound concentration 10.0 uM, Protein concentration 2.0 uM; remark: listed apart in the source
# [8] = molecular target: Bromodomain and WD repeat-containing protein 1 (Homo sapiens) (UniProt Q9NSI6); settings: Compound concentration 10.0 uM, Protein concentration 2.0 uM
# [9] = molecular target: Transcription intermediary factor 1-beta (Homo sapiens) (UniProt Q13263); settings: Compound concentration 10.0 uM, Protein concentration 2.0 uM
# [10] = molecular target: Transcription initiation factor TFIID subunit 1 (Homo sapiens) (UniProt P21675); settings: Compound concentration 10.0 uM, Protein concentration 2.0 uM
# [11] = molecular target: Bromodomain and PHD finger-containing protein 3 (Homo sapiens) (UniProt Q9ULD4); settings: Compound concentration 10.0 uM, Protein concentration 2.0 uM
# [12] = molecular target: Transcription intermediary factor 1-alpha (Homo sapiens) (UniProt O15164); settings: Compound concentration 10.0 uM, Protein concentration 2.0 uM
# [13] = molecular target: PH-interacting protein (Homo sapiens) (UniProt Q8WWQ0); settings: Compound concentration 50.0 uM, Protein concentration 0.025 uM
# [14] = molecular target: Bromodomain testis-specific protein (Homo sapiens) (UniProt Q58F21); settings: Compound concentration 10.0 uM, Protein concentration 2.0 uM
# [15] = molecular target: Bromodomain-containing protein 1 (Homo sapiens) (UniProt O95696); settings: Compound concentration 10.0 uM, Protein concentration 2.0 uM
# [16] = molecular target: Protein polybromo-1 (Homo sapiens) (UniProt Q86U86); settings: Compound concentration 10.0 uM, Protein concentration 2.0 uM
# Chain of Protein polybromo-1 (Homo sapiens) (Q86U86 whole entry): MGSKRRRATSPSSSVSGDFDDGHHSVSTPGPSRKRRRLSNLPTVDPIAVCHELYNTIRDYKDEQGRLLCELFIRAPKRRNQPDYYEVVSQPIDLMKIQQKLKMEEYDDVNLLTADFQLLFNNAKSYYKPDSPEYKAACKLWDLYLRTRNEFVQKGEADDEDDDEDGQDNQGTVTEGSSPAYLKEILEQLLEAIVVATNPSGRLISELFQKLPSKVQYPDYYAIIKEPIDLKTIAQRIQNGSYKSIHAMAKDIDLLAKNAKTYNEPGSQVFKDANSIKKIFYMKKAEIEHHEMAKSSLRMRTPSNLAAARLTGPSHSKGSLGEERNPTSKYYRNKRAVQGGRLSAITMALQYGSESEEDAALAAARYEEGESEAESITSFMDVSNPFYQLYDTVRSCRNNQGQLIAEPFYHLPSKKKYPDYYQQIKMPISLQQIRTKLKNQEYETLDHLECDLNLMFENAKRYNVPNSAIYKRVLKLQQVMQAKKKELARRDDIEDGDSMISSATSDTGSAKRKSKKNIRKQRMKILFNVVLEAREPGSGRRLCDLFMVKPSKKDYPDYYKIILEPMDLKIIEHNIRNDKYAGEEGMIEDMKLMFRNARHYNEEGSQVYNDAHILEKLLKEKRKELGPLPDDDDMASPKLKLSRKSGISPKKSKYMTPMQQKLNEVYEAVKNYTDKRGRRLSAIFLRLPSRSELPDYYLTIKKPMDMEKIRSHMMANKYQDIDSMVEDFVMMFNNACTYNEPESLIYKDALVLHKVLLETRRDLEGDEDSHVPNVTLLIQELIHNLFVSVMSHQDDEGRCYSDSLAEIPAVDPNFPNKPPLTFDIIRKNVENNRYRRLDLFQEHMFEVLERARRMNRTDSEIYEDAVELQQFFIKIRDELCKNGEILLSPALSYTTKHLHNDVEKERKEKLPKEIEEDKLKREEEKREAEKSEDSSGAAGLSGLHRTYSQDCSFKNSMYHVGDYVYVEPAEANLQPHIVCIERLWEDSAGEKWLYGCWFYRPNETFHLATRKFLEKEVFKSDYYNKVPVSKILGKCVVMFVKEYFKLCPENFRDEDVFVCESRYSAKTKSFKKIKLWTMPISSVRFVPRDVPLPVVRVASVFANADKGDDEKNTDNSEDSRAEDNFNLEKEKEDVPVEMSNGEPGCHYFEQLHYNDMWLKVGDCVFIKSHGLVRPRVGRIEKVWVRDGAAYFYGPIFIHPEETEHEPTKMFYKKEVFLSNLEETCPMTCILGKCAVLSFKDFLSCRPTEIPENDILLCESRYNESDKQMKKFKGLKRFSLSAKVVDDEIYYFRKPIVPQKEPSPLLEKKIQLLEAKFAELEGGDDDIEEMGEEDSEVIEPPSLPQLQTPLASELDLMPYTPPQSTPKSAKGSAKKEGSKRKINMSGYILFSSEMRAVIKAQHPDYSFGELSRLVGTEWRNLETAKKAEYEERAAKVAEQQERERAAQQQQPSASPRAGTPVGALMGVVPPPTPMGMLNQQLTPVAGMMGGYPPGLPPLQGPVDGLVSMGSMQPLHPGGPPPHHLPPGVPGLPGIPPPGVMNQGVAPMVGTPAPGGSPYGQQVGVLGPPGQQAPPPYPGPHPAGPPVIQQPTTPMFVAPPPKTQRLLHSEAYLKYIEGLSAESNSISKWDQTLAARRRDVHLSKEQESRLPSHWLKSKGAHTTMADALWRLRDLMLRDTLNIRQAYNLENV
# [17] = molecular target: Histone acetyltransferase p300 (Homo sapiens) (UniProt Q09472); settings: Compound concentration 10.0 uM, Protein concentration 2.0 uM
# [18] = molecular target: Bromodomain-containing protein 4 (Homo sapiens) (UniProt O60885); settings: Compound concentration 10.0 uM, Protein concentration 2.0 uM
# [19] = molecular target: Bromodomain adjacent to zinc finger domain protein 2B (Homo sapiens) (UniProt Q9UIF8); settings: Compound concentration 10.0 uM, Protein concentration 2.0 uM
# [20] = molecular target: Bromodomain-containing protein 2 (Homo sapiens) (UniProt P25440); settings: Compound concentration 10.0 uM, Protein concentration 2.0 uM
# Chain of Bromodomain-containing protein 2 (Homo sapiens) (P25440 whole entry, looked up): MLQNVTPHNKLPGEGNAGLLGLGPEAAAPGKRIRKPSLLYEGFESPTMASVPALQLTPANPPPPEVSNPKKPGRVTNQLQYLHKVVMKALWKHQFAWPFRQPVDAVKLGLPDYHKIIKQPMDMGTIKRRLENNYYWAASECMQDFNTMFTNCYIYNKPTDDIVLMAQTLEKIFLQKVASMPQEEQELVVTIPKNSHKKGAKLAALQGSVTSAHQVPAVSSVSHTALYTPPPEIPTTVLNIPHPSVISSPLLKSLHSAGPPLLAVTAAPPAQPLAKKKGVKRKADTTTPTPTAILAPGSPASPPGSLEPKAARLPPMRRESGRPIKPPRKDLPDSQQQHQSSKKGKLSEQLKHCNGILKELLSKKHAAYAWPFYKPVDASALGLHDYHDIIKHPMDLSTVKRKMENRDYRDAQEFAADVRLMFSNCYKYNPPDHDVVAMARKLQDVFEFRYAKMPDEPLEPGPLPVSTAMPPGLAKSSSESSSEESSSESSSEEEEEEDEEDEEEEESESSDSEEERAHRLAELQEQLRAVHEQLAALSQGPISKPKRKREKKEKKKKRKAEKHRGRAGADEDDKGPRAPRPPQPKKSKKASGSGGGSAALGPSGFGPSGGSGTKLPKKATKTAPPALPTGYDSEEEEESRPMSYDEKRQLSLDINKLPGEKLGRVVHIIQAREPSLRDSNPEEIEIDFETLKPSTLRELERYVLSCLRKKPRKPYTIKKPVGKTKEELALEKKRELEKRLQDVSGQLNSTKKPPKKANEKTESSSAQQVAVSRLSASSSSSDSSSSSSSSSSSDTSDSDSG
# [21] = molecular target: Protein polybromo-1 (Homo sapiens) (UniProt Q86U86); settings: Compound concentration 10.0 uM, Protein concentration 2.0 uM; remark: listed apart in the source
# [22] = molecular target: Bromodomain-containing protein 4 (Homo sapiens) (UniProt O60885); assay: Alphascreen assay. Domain start/stop: N44-E168; settings: Compound concentration 25.0 uM, Protein concentration 6.25 uM
# Peregrin (Homo sapiens) [23] = molecular target: T1, Peregrin (Homo sapiens) (UniProt P55201); settings: Compound concentration 10.0 uM, Protein concentration 2.0 uM
# T1 sequence (whole entry): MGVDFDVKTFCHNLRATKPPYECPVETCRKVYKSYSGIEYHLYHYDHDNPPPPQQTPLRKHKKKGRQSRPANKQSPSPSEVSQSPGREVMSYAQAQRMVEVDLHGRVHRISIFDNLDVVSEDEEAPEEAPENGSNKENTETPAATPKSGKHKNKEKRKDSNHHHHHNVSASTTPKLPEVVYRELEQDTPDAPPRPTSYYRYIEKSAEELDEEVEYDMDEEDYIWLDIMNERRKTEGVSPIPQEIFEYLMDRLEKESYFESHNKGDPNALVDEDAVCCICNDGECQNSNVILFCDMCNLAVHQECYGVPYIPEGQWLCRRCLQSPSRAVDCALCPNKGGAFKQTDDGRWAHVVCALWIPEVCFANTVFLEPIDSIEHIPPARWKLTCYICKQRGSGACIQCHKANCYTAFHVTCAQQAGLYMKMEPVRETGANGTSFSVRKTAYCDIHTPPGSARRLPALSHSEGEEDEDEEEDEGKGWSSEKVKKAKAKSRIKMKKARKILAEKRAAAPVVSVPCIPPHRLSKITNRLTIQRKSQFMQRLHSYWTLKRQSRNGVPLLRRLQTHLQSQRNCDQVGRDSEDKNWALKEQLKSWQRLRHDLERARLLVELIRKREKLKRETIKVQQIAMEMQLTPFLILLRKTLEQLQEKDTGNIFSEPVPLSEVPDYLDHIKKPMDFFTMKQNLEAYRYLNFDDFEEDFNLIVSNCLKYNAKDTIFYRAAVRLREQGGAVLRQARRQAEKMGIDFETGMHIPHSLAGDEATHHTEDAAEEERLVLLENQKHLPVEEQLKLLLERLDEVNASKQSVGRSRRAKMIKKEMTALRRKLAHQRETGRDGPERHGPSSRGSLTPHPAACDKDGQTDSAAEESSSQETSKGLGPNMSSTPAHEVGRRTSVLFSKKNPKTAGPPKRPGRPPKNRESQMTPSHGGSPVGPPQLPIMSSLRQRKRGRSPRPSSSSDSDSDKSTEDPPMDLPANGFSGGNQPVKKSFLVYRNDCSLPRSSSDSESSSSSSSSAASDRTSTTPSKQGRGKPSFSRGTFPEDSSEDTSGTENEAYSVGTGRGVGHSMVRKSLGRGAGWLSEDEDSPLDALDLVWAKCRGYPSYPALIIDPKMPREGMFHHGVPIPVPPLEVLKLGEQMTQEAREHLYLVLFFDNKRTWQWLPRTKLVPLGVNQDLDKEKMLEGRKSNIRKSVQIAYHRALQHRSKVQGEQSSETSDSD
# [24] = molecular target: Chromatin remodeling regulator CECR2 (Homo sapiens) (UniProt Q9BXF3); settings: Compound concentration 4.0 uM, Protein concentration 19.0 uM
# [25] = molecular target: Protein polybromo-1 (Homo sapiens) (UniProt Q86U86); settings: Compound concentration 10.0 uM, Protein concentration 2.0 uM; remark: listed apart in the source
# [26] = molecular target: PH-interacting protein (Homo sapiens) (UniProt Q8WWQ0); settings: Compound concentration 10.0 uM, Protein concentration 2.0 uM
# Peregrin (Homo sapiens) [27] = molecular target: T1, Peregrin (Homo sapiens); assay: Alphascreen assay. Domain start/stop: M626-G740; settings: Protein concentration 50.0 uM
# [28] = molecular target: SWI/SNF-related matrix-associated actin-dependent regulator of chromatin subfamily A member 2 (Homo sapiens) (UniProt P51531); settings: Compound concentration 10.0 uM, Protein concentration 2.0 uM
# [29] = molecular target: Bromodomain-containing protein 9 (Homo sapiens) (UniProt Q9H8M2); assay: Alphascreen assay. Domain start/stop: L14-Q143; settings: Compound concentration 4.0 uM, Protein concentration 5.0 uM
# Chain of Bromodomain-containing protein 9 (Homo sapiens) (Q9H8M2 whole entry): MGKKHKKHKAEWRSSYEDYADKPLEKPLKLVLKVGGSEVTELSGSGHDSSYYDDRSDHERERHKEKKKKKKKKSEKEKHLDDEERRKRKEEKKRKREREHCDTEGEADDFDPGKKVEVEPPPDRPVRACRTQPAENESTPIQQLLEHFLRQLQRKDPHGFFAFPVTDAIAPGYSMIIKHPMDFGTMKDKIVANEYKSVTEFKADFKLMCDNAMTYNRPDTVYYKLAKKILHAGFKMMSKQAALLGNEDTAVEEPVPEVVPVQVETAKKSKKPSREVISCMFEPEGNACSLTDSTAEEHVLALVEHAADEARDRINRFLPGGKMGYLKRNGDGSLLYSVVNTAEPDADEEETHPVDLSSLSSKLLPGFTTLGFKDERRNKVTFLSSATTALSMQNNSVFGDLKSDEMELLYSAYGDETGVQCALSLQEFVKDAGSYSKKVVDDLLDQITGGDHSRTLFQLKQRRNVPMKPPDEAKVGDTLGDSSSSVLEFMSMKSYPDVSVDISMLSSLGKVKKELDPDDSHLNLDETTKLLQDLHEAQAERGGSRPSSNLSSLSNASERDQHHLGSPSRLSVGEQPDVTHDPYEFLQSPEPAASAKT
# [30] = molecular target: Bromodomain-containing protein 9 (Homo sapiens) (UniProt Q9H8M2); settings: Compound concentration 10.0 uM, Protein concentration 2.0 uM
# [31] = molecular target: Transcription initiation factor TFIID subunit 1-like (Homo sapiens) (UniProt Q8IZX4); settings: Compound concentration 10.0 uM, Protein concentration 2.0 uM
# [32] = molecular target: Nucleosome-remodeling factor subunit BPTF (Homo sapiens) (UniProt Q12830); settings: Compound concentration 10.0 uM, Protein concentration 2.0 uM
# [33] = molecular target: Bromodomain testis-specific protein (Homo sapiens) (UniProt Q58F21); settings: Compound concentration 10.0 uM, Protein concentration 2.0 uM; remark: listed apart in the source
# [34] = molecular target: Bromodomain-containing protein 2 (Homo sapiens) (UniProt P25440); settings: Compound concentration 10.0 uM, Protein concentration 2.0 uM; remark: listed apart in the source
# [35] = molecular target: Bromodomain and WD repeat-containing protein 3 (Homo sapiens) (UniProt Q6RI45); settings: Compound concentration 10.0 uM, Protein concentration 2.0 uM
# [36] = molecular target: ATPase family AAA domain-containing protein 2 (Homo sapiens) (UniProt Q6PL18); settings: Compound concentration 10.0 uM, Protein concentration 2.0 uM
# [37] = molecular target: SWI/SNF-related matrix-associated actin-dependent regulator of chromatin subfamily A member 4 (Homo sapiens) (UniProt P51532); settings: Compound concentration 10.0 uM, Protein concentration 2.0 uM
# [38] = molecular target: Bromodomain adjacent to zinc finger domain protein 1A (Homo sapiens) (UniProt Q9NRL2); settings: Compound concentration 10.0 uM, Protein concentration 2.0 uM
# [39] = molecular target: Nuclear body protein SP140 (Homo sapiens) (UniProt Q13342); settings: Compound concentration 10.0 uM, Protein concentration 2.0 uM
# [40] = molecular target: CREB-binding protein (Homo sapiens) (UniProt Q92793); settings: Compound concentration 10.0 uM, Protein concentration 2.0 uM
# [41] = molecular target: Tyrosine-protein kinase BAZ1B (Homo sapiens) (UniProt Q9UIG0); settings: Compound concentration 10.0 uM, Protein concentration 2.0 uM
# [42] = molecular target: Bromodomain-containing protein 3 (Homo sapiens) (UniProt Q15059); settings: Compound concentration 10.0 uM, Protein concentration 2.0 uM; remark: listed apart in the source
# [43] = molecular target: Protein polybromo-1 (Homo sapiens) (UniProt Q86U86); settings: Compound concentration 10.0 uM, Protein concentration 2.0 uM; remark: listed apart in the source
# [44] = molecular target: Nuclear body protein SP140-like protein (Homo sapiens) (UniProt Q9H930); settings: Compound concentration 10.0 uM, Protein concentration 2.0 uM
# [45] = molecular target: Transcription initiation factor TFIID subunit 1-like (Homo sapiens) (UniProt Q8IZX4); settings: Compound concentration 10.0 uM, Protein concentration 2.0 uM; remark: listed apart in the source
# [46] = molecular target: E3 ubiquitin-protein ligase TRIM33 (Homo sapiens) (UniProt Q9UPN9); assay: Thermal Shift Assay. Domain start/stop: D882-P1073; settings: Compound concentration 10.0 uM, Protein concentration 2.0 uM
# [47] = molecular target: Histone acetyltransferase KAT2A (Homo sapiens) (UniProt Q92830); settings: Compound concentration 10.0 uM, Protein concentration 2.0 uM
# [48] = molecular target: Nucleosome-remodeling factor subunit BPTF (Homo sapiens) (UniProt Q12830)
# Description: Alphascreen assay. Domain start/stop: S2791-H2911
# [49] = molecular target: ATPase family AAA domain-containing protein 2B (Homo sapiens) (UniProt Q9ULI0); settings: Compound concentration 10.0 uM, Protein concentration 2.0 uM
# [50] = molecular target: Bromodomain adjacent to zinc finger domain protein 2A (Homo sapiens) (UniProt Q9UIF9); settings: Compound concentration 10.0 uM, Protein concentration 2.0 uM
# [51] = molecular target: Protein polybromo-1 (Homo sapiens) (UniProt Q86U86); settings: Compound concentration 10.0 uM, Protein concentration 2.0 uM; remark: listed apart in the source
# Peregrin (Homo sapiens) [52] = molecular target: T1, Peregrin (Homo sapiens); settings: Compound concentration 10.0 uM, Protein concentration 2.0 uM; remark: listed apart in the source
# [53] = molecular target: Transcription initiation factor TFIID subunit 1 (Homo sapiens) (UniProt P21675); settings: Compound concentration 10.0 uM, Protein concentration 2.0 uM; remark: listed apart in the source
# [54] = molecular target: Protein polybromo-1 (Homo sapiens) (UniProt Q86U86); settings: Compound concentration 10.0 uM, Protein concentration 2.0 uM; remark: listed apart in the source
compound,measurement,setting,value
Cc1cc(=O)n(C)c2cc(N3C(=O)CC[C@@H](NS(=O)(=O)CC(C)C)[C@@H]3c3ccc(Cl)cc3)ccc12,ΔTm,[1],-0.26 °C
same,ΔTm,[2],10.1 °C and 10.7 °C
same,ΔTm,[3],0.09 °C
same,ΔTm,[4],0.17 °C
same,ΔTm,[5],0.6 °C
same,ΔTm,[6],0.17 °C
same,ΔTm,[7],0.69 °C
same,ΔTm,[8],-0.43 °C
same,ΔTm,[9],0.2 °C
same,ΔTm,[10],0.33 °C
same,ΔTm,[11],-0.05 °C
same,ΔTm,[12],-0.09 °C
same,inhibition,[13],1.4% and 14.2%
same,ΔTm,[14],0.17 °C
same,ΔTm,[15],0.01 °C
same,ΔTm,[16],-0.12 °C
same,ΔTm,[17],0.03 °C
same,ΔTm,[18],-0.08 °C
same,ΔTm,[19],-0.02 °C
same,ΔTm,[20],-0.14 °C
same,ΔTm,[21],0.01 °C
same,inhibition,[22],4.77%
same,ΔTm,Peregrin (Homo sapiens) [23],-0.09 °C and 0.15 °C
same,inhibition,[24],10.7%
same,ΔTm,[25],0.16 °C
same,ΔTm,[26],-0.48 °C
same,inhibition,Peregrin (Homo sapiens) [27]; Compound concentration 1.25 uM,1.84%
same,inhibition,Peregrin (Homo sapiens) [27]; Compound concentration 4.0 uM,3.88%
same,ΔTm,[28],0.44 °C
same,inhibition,[29],95.6%
same,ΔTm,[30],5.28 °C and 8.25 °C and 6.82 °C
same,ΔTm,[31],0.27 °C
same,ΔTm,[32],1.82 °C
same,ΔTm,[33],0.06 °C
same,ΔTm,[34],0.38 °C
same,ΔTm,[35],0.82 °C
same,ΔTm,[36],0.02 °C
same,ΔTm,[37],0.16 °C
same,ΔTm,[38],-0.09 °C
same,ΔTm,[39],0.44 °C
same,ΔTm,[40],0.17 °C and -0.28 °C
same,ΔTm,[41],-0.45 °C
same,ΔTm,[42],0.15 °C
same,ΔTm,[43],0.15 °C and 0.13 °C
same,ΔTm,[44],0.96 °C
same,ΔTm,[45],0.24 °C
same,ΔTm,[46],0.14 °C
same,ΔTm,[47],-0.21 °C
same,inhibition,"[48]; Compound concentration 0.25 uM, Protein concentration 19.0 uM",3.67%
same,inhibition,"[48]; Compound concentration 0.25 uM, Protein concentration 20.0 uM",7.02%
same,inhibition,"[48]; Compound concentration 4.0 uM, Protein concentration 19.0 uM",7.64%
same,ΔTm,[49],0.35 °C
same,ΔTm,[50],-0.38 °C
same,ΔTm,[51],0.76 °C
same,ΔTm,Peregrin (Homo sapiens) [52],-0.19 °C
same,ΔTm,[53],1.22 °C
same,ΔTm,[54],0.14 °C
